Tests used:
Assay type in all cases: biochemical
PAK2 (PAK65) = PAK2 (PAK65) (Homo sapiens, UniProt Q13177); assay: In vitro PAK inhibition assay (SelectScreen, Ser/Thr 20 peptide)
Description: (§1) Compounds are screened in 1% DMSO (final) in the well. For 10 point titrations, 3-fold serial dilutions are conducted.
(§2) All Peptide/Kinase Mixtures are diluted to a 2× working concentration in the appropriate Kinase Buffer
The 2×PAK2 (PAK65)/Ser/Thr 20 mixture is prepared in 50 mM HEPES pH 7.5, 0.01% BRIJ-35, 10 mM MgCl2, 1 mM EGTA. The final 10 μL Kinase Reaction consists of 0.29-6 ng PAK2 (PAK65) and 2 μM Ser/Thr 20 in 50 mM HEPES pH 7.5, 0.01% BRIJ-35, 10 mM MgCl2, 1 mM EGTA.
(§3) This control yields 100% cleaved peptide in the Development Reaction.
(§4) The 100% Phosphorylation Control, which consists of a synthetically phosphorylated peptide of the same sequence as the peptide substrate, is designed to allow for the calculation of percent phosphorylation.
(§5) This control is designed to produce a 10-50%* phosphorylated peptide in the Kinase Reaction.
(§6) A known inhibitor control standard curve, 10 point titration, is run for each individual kinase on the same plate as the kinase to ensure the kinase is inhibited within an expected IC50 range previously determined.
(§7) Add the following solutions to a well in a 384-well plate: • 2.5 μL of 4× Test Compound OR (100 nL 100× Test Compound plus 2.4 μL kinase buffer) • 5 μL of 2× Peptide/Kinase (PAK) Mixture • 2.5 μL of 4×ATP Solution • 2. Shake the plate for 30-seconds • 3. Incubate the PAK Kinase Reaction at room temperature for 60-minutes • 4. Add 5 μL of Development Reagent Solution to each well • 5. Shake the plate for 30-seconds • 6. Incubate the Development Reaction for 60-minutes • 7. Determine the fluorescence using a fluorescence plate reader • 8. Analyze the fluorescence data
(§8) SelectScreen® Kinase Profiling Service uses XLfit from IDBS.
(§9) The representative IC50 value with a known inhibitor for each kinase was determined at the ATP bin nearest to the ATP Km app.

PAK1 = PAK1 (Homo sapiens, UniProt Q13153); assay: In vitro PAK inhibition assay (SelectScreen, Ser/Thr 19 peptide)
Chain of PAK1 (Q13153 whole entry): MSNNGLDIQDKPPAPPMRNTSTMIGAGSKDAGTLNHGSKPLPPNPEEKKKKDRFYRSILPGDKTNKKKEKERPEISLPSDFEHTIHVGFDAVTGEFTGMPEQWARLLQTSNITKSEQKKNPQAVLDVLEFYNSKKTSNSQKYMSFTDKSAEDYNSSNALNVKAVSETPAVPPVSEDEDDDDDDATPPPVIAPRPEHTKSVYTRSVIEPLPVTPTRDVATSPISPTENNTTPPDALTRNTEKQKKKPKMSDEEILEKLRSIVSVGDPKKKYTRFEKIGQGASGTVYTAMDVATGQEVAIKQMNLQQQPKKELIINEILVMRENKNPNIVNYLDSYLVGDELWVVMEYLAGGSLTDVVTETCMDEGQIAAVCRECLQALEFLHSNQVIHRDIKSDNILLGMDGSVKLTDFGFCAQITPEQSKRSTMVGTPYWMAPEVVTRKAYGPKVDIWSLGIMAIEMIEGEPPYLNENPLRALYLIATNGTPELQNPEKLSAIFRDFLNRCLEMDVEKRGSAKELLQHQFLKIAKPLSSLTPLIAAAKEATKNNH
Description: as §1, §2
The 2×PAK1/Ser/Thr 19 mixture is prepared in 50 mM HEPES pH 7.5, 0.01% BRIJ-35, 10 mM MgCl2, 1 mM EGTA.
as §3, §4, §5, §6, §7, §8, §9

PAK4 = PAK4 (Homo sapiens, UniProt O96013); assay: In vitro PAK inhibition assay (SelectScreen, Ser/Thr 20 peptide)
Chain of PAK4 (O96013 whole entry): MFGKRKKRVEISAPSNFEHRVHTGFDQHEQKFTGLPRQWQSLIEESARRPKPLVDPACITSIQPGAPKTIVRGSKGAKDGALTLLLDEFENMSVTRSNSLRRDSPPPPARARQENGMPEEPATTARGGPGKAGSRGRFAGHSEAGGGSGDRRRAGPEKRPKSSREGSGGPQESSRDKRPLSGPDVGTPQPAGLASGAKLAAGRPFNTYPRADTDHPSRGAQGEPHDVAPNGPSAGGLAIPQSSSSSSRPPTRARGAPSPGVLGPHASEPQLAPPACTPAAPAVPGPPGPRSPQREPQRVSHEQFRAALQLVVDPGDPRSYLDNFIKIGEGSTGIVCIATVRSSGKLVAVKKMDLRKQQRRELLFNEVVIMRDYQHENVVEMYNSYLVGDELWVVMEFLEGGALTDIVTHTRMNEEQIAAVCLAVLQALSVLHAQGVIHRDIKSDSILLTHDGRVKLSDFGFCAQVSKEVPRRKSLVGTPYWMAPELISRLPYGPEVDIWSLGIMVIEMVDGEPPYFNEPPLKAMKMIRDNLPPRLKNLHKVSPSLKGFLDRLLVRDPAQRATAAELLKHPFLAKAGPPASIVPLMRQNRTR
Description: as §1, §2
The 2×PAK4/Ser/Thr 20 mixture is prepared in 50 mM HEPES pH 7.5, 0.01% BRIJ-35, 10 mM MgCl2, 1 mM EGTA. The final 10 μL Kinase Reaction consists of 0.1-0.75 ng PAK4 and 2 μM Ser/Thr 20 in 50 mM HEPES pH 7.5, 0.01% BRIJ-35, 10 mM MgCl2, 1 mM EGTA. After the 1 hour Kinase Reaction incubation, 5 μL of a 1:256 dilution of Development Reagent A is added.
as §3, §4
The minimum Emission Ratio in a screen is established by the 0% Inhibition Control, which contains active kinase. This control is designed to produce a 10-50%* phosphorylated peptide in the Kinase Reaction.
as §6
as §7, with “Bar-coded Corning, low volume NBS, black 384-well plate (Corning Cat. #3676) • 1. Add the” for “Add the”
SelectScreen® Kinase Profiling Service uses XLfit from IDBS. The dose response curve is curve fit to model number 205 (sigmoidal dose-response model).
The table below provides specifications and data around each kinase. The representative IC50 value with a known inhibitor for each kinase was determined at the ATP bin nearest to the ATP Km app.

PAK3 = PAK3 (Homo sapiens, UniProt O75914); assay: as above
Chain of PAK3 (O75914 whole entry): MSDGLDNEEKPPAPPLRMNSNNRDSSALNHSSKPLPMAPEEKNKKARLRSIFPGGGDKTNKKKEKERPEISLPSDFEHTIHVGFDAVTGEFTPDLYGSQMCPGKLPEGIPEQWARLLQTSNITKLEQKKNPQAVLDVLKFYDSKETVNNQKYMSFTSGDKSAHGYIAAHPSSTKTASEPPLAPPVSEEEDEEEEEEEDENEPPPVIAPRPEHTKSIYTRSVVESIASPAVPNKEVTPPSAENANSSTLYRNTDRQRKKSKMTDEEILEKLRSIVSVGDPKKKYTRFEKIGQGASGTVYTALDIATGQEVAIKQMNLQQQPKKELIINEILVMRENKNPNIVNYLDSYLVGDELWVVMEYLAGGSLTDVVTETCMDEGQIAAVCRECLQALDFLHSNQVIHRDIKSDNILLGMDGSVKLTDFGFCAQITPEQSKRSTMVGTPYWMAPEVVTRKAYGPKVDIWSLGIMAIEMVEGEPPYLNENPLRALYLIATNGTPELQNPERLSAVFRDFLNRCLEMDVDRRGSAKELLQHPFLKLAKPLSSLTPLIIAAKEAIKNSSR
Description: as §1, §2
The 2×PAK3/Ser/Thr 20 mixture is prepared in 50 mM HEPES pH 7.5, 0.01% BRIJ-35, 10 mM MgCl2, 1 mM EGTA.
as §3, §4, §5, §6, §7, §8, §9

Chain of PAK2 (PAK65) (Q13177 whole entry): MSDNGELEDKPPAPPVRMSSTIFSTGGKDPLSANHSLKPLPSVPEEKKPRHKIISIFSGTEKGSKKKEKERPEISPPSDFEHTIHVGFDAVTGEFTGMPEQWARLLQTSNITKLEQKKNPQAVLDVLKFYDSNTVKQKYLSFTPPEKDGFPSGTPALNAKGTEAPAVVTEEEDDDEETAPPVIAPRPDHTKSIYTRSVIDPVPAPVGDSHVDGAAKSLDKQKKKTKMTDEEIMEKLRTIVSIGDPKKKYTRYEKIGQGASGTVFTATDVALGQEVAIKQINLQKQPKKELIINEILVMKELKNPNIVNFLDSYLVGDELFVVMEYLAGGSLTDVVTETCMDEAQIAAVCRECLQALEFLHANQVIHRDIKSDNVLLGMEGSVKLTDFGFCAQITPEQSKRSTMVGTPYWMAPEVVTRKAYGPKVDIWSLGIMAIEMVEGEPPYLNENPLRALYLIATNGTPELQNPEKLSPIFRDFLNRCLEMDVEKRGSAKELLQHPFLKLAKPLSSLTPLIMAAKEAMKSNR

| Compound | IC50 (PAK2 (PAK65)) [nM] | IC50 (PAK1) [nM] | IC50 (PAK4) [µM] | IC50 (PAK3) [nM] |
| --- | --- | --- | --- | --- |
| CCN1CCC(c2ccc(Nc3ncc4cc(-c5ccc(-c6cccnc6)cc5Cl)c(=O)n(CC)c4n3)cc2F)CC1 | < 50 | < 50 | 0.5 to 5 | < 50 |
| CCn1c(=O)c(-c2sc(C)nc2C)cc2cnc(Nc3ccc(N4CCN(C)CC4)cc3)nc21 | > 5000 | > 5000 | ≥ 5 | > 5000 |
| CCn1c(=O)c(-c2ccc(-c3cccnc3)cc2Cl)cc2cnc(Nc3ccc(C4CCN(C)CC4)cc3)nc21 | < 50 | < 50 | 0.5 to 5 | < 50 |
| CCn1c(=O)c(-c2ccc(-c3noc(C)n3)cc2Cl)cc2cnc(Nc3ccc(N4CCNCC4)cc3)nc21 | < 50 | < 50 | 0.05 to 0.5 | < 50 |
| CCn1c(=O)c(-c2ccc(-c3ccnc(C(=O)NC)c3)cc2Cl)cc2cnc(Nc3ccc(C4CCN(C)CC4)cc3)nc21 | 50 to 500 | < 50 | ≥ 5 | 50 to 500 |
| CCn1c(=O)c(-c2ccc(-c3ccc(C)nc3)cc2Cl)cc2cnc(Nc3ccc(CCN(C)C)cc3)nc21 | < 50 | < 50 | 0.5 to 5 | 50 to 500 |
| CCn1c(=O)c(-c2ccc(-c3cccnc3)cc2Cl)cc2cnc(Nc3ccc(N4CCN(C(C)C)CC4)cc3)nc21 [drawing 650] | < 50 | < 50 | ≥ 5 | < 50 |
| CCn1c(=O)c(-c2ccc(-c3noc(C)n3)cc2Cl)cc2cnc(Nc3ccc(C4CCNCC4)cc3)nc21 |  |  |  | < 50 |
| CCn1c(=O)c(-c2ccc(-c3noc(C(F)(F)F)n3)cc2Cl)cc2cnc(Nc3ccc(N4CCN(C)CC4)cc3)nc21 | < 50 | < 50 | ≥ 5 | 50 to 500 |
| CCN1CCC(c2ccc(Nc3ncc4cc(-c5ccc(-c6cccnc6C)cc5Cl)c(=O)n(C)c4n3)cc2)CC1 | 50 to 500 | < 50 | ≥ 5 | 50 to 500 |
| CCn1c(=O)c(-c2ccc(-c3cnccn3)cc2F)cc2cnc(Nc3ccc(C4CCN(C)CC4)cc3)nc21 | < 50 | < 50 | 0.05 to 0.5 | < 50 |
| CCn1c(=O)c(-c2ccc(-c3cnc(C)s3)cc2Cl)cc2cnc(Nc3ccc(N4CCN(C)CC4)cc3)nc21 | < 50 | < 50 | ≥ 5 | < 50 |
| CN1CCC(c2ccc(Nc3ncc4cc(-c5ccc(-c6cccnc6F)cc5Cl)c(=O)n(C)c4n3)cc2)CC1 | < 50 | < 50 | ≥ 5 | < 50 |
| CCn1c(=O)c(-c2ccc(-c3noc(C)n3)cc2Cl)cc2cnc(Nc3ccc(C4=CCN(C)CC4)cc3)nc21 | < 50 | < 50 | 0.5 to 5 | < 50 |
| CCN1CCC(c2ccc(Nc3ncc4cc(-c5ccc(-c6noc(C)n6)cc5Cl)c(=O)n(C)c4n3)cc2)CC1 | < 50 | < 50 | ≥ 5 | < 50 |
| CCn1c(=O)c(-c2ccc(-c3ccnc(C(=O)NC)c3)cc2Cl)cc2cnc(Nc3ccc(C4CCN5CCCC5C4)cc3)nc21 (stereo not shown) | 50 to 500 | 50 to 500 | ≥ 5 | 50 to 500 |
| CCn1c(=O)c(-c2ccc(-c3cncnc3)cc2)cc2cnc(Nc3ccc(N4CCN(C)CC4)cc3)nc21 | 50 to 500 | 50 to 500 | ≥ 5 | 500 to 5000 |
| CCn1c(=O)c(-c2ccc(-c3ccc(C)nc3)cc2Cl)cc2cnc(Nc3ccc(C4CCN5CCCC5C4)cc3)nc21 (stereo not shown) | < 50 | < 50 | 0.5 to 5 | 50 to 500 |
| Cc1ncccc1-c1cc(Cl)c(-c2cc3cnc(Nc4ccc(C5CCN(C)CC5)cc4)nc3n(C)c2=O)cc1F | 50 to 500 | 50 to 500 | ≥ 5 | 500 to 5000 |
| Cc1cnc(-c2ccc(Cl)c(-c3cc4cnc(Nc5ccc(C6CCN(C)CC6)cc5)nc4n(C)c3=O)c2)s1 | > 5000 | 50 to 500 | ≥ 5 | 50 to 500 |
| CCn1c(=O)c(-c2ccc(-c3ncccn3)cc2Cl)cc2cnc(Nc3ccc(N4CCN(C)CC4)cc3)nc21 | < 50 | < 50 | 0.5 to 5 | < 50 |
| CCn1c(=O)c(-c2ccc(C3CC3)cc2C2CC2)cc2cnc(Nc3ccc(N4CCN(C)CC4)cc3)nc21 | 500 to 5000 | 500 to 5000 | ≥ 5 | 500 to 5000 |
| CCn1c(=O)c(-c2ccc(-c3cccnc3F)cc2Cl)cc2cnc(Nc3ccc(C4=CCNCC4)cc3)nc21 | < 50 | < 50 | 0.05 to 0.5 | < 50 |
| Cc1ncc(-c2ccc(-c3cc4cnc(Nc5ccc(C6CCNCC6)cc5)nc4n(C)c3=O)c(Cl)c2)s1 | < 50 | < 50 | 0.5 to 5 | 50 to 500 |
| CCn1c(=O)c(-c2ccc(-c3cccnc3C)cc2Cl)cc2cnc(Nc3ccc(C4CCNCC4)cc3)nc21 |  |  |  | 50 to 500 |

More lines, now with the values ahead:

| IC50 (PAK2 (PAK65)) [nM] | IC50 (PAK1) [nM] | IC50 (PAK4) [µM] | IC50 (PAK3) [nM] | Compound |
| --- | --- | --- | --- | --- |
| < 50 | < 50 | ≥ 5 | 50 to 500 | CCn1c(=O)c(-c2cc(C)c(-c3cccnc3C)cc2Cl)cc2cnc(Nc3ccc(C4CCN(C)CC4)cc3)nc21 |
| < 50 | < 50 | 0.05 to 0.5 | < 50 | CCn1c(=O)c(-c2ccc(-c3ccc(OC)nc3)cc2Cl)cc2cnc(Nc3ccc(N4CCN(C)CC4)cc3)nc21 |
| > 5000 | > 5000 | ≥ 5 | > 5000 | CC(=O)N(C)c1ccc(-c2ccc(Cl)c(-c3cc4cnc(Nc5ccc(C6CCN(C)CC6)cc5)nc4n(C)c3=O)c2)cn1 |
| < 50 | < 50 | ≥ 5 | < 50 | CCn1c(=O)c(-c2ccc(-c3nccnc3C)cc2C)cc2cnc(Nc3ccc(C4CCN(C)CC4)cc3)nc21 |
| < 50 | < 50 | ≥ 5 | 50 to 500 | CCn1c(=O)c(-c2ccc(-c3noc(C)n3)cc2F)cc2cnc(Nc3ccc(C4CCN(C)CC4)cc3)nc21 |
| > 5000 | 500 to 5000 | 0.5 to 5 | 50 to 500 | CN1CCC(c2ccc(Nc3ncc4cc(-c5cc(-c6nccc(N(C)C)n6)ccc5Cl)c(=O)n(C)c4n3)cc2)CC1 |
| 50 to 500 | < 50 | ≥ 5 | 50 to 500 | CCn1c(=O)c(-c2ccc(-c3cccnc3C)cc2Cl)cc2cnc(Nc3ccc(C4CCN5CCCC5C4)cc3)nc21 (stereo not shown) |
| 50 to 500 | 50 to 500 | ≥ 5 | 50 to 500 | CCn1c(=O)c(-c2ccc(-c3cc(C(F)(F)F)ncn3)cc2Cl)cc2cnc(Nc3ccc(C4CCN(C)CC4)cc3)nc21 |
|  |  |  | 50 to 500 | CCn1c(=O)c(-c2ccc(-c3cnc(C)s3)cc2Cl)cc2cnc(Nc3ccc(C4CCNCC4)cc3)nc21 |
|  |  | 0.5 to 5 |  | CCn1c(=O)c(-c2ccc(-c3cccnc3F)cc2Cl)cc2cnc(Nc3ccc(C4CCNCC4)cc3)nc21 |
| 50 to 500 | 50 to 500 |  |  | CCn1c(=O)c(-c2ccc(-c3ccnc(C)c3)cc2Cl)cc2cnc(Nc3ccc(C4CCNCC4)c(F)c3)nc21 |
